From publication PMC7345905, “Microbial Metabolite Urolithin B Inhibits Recombinant Human Monoamine Oxidase A Enzyme” (Metabolites, 2020)
Values joined by “and” are separate entries in the source; they are usually repeats but may differ in a detail not shown here. Equal values may be shown once.

Molecular target: T1, human recombinant MAO-A (Homo sapiens, UniProt P21397)
T1 construct: purchased Sigma-Aldrich
T1 sequence (P21397 1-527): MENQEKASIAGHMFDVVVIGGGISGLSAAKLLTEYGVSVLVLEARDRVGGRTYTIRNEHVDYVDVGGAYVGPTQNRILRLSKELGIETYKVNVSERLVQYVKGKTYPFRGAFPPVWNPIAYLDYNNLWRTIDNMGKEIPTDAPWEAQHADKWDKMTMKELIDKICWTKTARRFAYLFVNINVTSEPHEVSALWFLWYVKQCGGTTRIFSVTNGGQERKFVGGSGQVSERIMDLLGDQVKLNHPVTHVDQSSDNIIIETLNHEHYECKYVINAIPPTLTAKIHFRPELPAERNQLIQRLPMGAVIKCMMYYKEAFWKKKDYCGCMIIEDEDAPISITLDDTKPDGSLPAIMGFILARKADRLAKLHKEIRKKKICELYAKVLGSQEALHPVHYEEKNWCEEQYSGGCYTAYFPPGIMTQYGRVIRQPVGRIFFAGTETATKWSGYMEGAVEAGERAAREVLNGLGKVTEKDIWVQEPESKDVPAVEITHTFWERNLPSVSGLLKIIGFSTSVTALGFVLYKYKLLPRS
Test: MAO-A inhibition kinetics (variable substrate, Lineweaver–Burk plot)
Assay type: biochemical
Parameters: Michaelis-Menten best-fit Vmax of MAO-A / Michaelis-Menten best-fit Vmax of MAO-A, Average: unit not given here
Details: for MAO-A assay signal (luminescence) / Transformed (reciprocal of MAO-A assay signal) / Michaelis-Menten best-fit Vmax of MAO-A: N=1-3
Protocol: MAO inhibition assays were performed using a MAO-Glo™ Assay kit (Promega) according to the manufacturer’s instructions. Briefly, 1 µg of human recombinant MAO-A and MAO-B enzyme isoforms were incubated with 160 and 16 µM of MAO substrates, respectively. […] The enzyme reaction was quenched by the addition of a luciferin detection reagent. […] An equal volume of dimethyl sulfoxide (0.1%) was added to the enzyme assay as a control. After 1 h of incubation, the luminescence was measured with a multimode microplate reader (Synergy HT, BioTek, Winooski, VT, USA) to determine the MAO enzyme activities. Initially, the inhibition potential of all the test compounds was evaluated at a concentration of 100 μM. The control reaction (with no inhibitor) with vehicle (DMSO 0.1%) was set at 100% activity. To determine IC50 of the test compounds, the dose dependent enzyme assays were performed. We used range of 0.1 to 50 μM concentrations for MAO-A and 0.1 to 200 μM concentrations of test compounds for the MAO-B enzyme activities. The type of enzyme inhibition was determined using variable concentrations of MAO-A substrate (10–360 µM) and MAO-B substrate (2–64 µM) for the respective enzyme assay. […] A Lineweaver–Burk double reciprocal plot was generated, and the mode of inhibition was determined by visual examination of the plot. The slope of the reciprocal plots was plotted against the inhibitor concentrations and determined the x-axis intercept that represented the inhibitor constant, Ki value.
All experiments were performed in triplicates and data are presented as mean ± standard error of the mean (SEM). The raw data are provided in Supplementary Data, Table S1. Enzyme kinetic data were analyzed using the Lineweaver–Burk plot. Statistical analysis was performed by Student’s t-test using GraphPad Prism Ver. 7.0 (GraphPad Prism Software Inc., San Diego, CA, USA).

[1] = UroC 15 µM, MAO-A substrate 10 uM
[2] = UroC 15 µM, MAO-A substrate 20 uM
[3] = UroC 15 µM, MAO-A substrate 40 uM
[4] = UroC 15 µM, MAO-A substrate 80 uM
[5] = UroC 15 µM, MAO-A substrate 160 uM
[6] = UroC 15 µM, MAO-A substrate 320 uM
[7] = UroC 60 µM, MAO-A substrate 10 uM
[8] = UroC 60 µM, MAO-A substrate 20 uM
[9] = UroC 60 µM, MAO-A substrate 40 uM
[10] = UroC 60 µM, MAO-A substrate 80 uM
[11] = UroC 60 µM, MAO-A substrate 160 uM
[12] = UroC 60 µM, MAO-A substrate 320 uM

mode of inhibition of MAO-A (Lineweaver–Burk plot): mixed mode of inhibition
MAO-A assay signal (luminescence), Average [1]: 1825
MAO-A assay signal (luminescence) [1]: 1969 and 1718 and 1788
MAO-A assay signal (luminescence), Average [2]: 3291
MAO-A assay signal (luminescence) [2]: 3541 and 3116 and 3216
MAO-A assay signal (luminescence), Average [3]: 5930.67
MAO-A assay signal (luminescence) [3]: 6537 and 5679 and 5576
MAO-A assay signal (luminescence), Average [4]: 11350.3
MAO-A assay signal (luminescence) [4]: 12348 and 10938 and 10765
MAO-A assay signal (luminescence), Average [5]: 17552.3
MAO-A assay signal (luminescence) [5]: 18484 and 16889 and 17284
MAO-A assay signal (luminescence), Average [6]: 26455.7
MAO-A assay signal (luminescence) [6]: 27220 and 26215 and 25932
Transformed (reciprocal of MAO-A assay signal), Average (UroC 15 µM, [1/S] 0.003125): 3.78e-5
Transformed (reciprocal of MAO-A assay signal) (UroC 15 µM, [1/S] 0.003125): 3.674e-5 and 3.815e-5 and 3.856e-5
Transformed (reciprocal of MAO-A assay signal), Average (UroC 15 µM, [1/S] 0.00625): 5.697e-5
Transformed (reciprocal of MAO-A assay signal) (UroC 15 µM, [1/S] 0.00625): 5.41e-5 and 5.921e-5 and 5.7857e-5
Transformed (reciprocal of MAO-A assay signal), Average (UroC 15 µM, [1/S] 0.0125): 8.81e-5
Transformed (reciprocal of MAO-A assay signal) (UroC 15 µM, [1/S] 0.0125): 8.098e-5 and 9.142e-5 and 9.289e-5
Transformed (reciprocal of MAO-A assay signal), Average (UroC 15 µM, [1/S] 0.025): 0.0001686
Transformed (reciprocal of MAO-A assay signal) (UroC 15 µM, [1/S] 0.025): 0.000153 and 0.0001761 and 0.0001793
Transformed (reciprocal of MAO-A assay signal), Average (UroC 15 µM, [1/S] 0.05): 0.0003039
Transformed (reciprocal of MAO-A assay signal) (UroC 15 µM, [1/S] 0.05): 0.0002824 and 0.0003209 and 0.0003109
Transformed (reciprocal of MAO-A assay signal), Average (UroC 15 µM, [1/S] 0.1): 0.0005479
Transformed (reciprocal of MAO-A assay signal) (UroC 15 µM, [1/S] 0.1): 0.0005079 and 0.0005821 and 0.0005593
MAO-A assay signal (luminescence), Average [7]: 728
MAO-A assay signal (luminescence) [7]: 706 and 793 and 685
MAO-A assay signal (luminescence), Average [8]: 1221
MAO-A assay signal (luminescence) [8]: 1198 and 1213 and 1252
MAO-A assay signal (luminescence), Average [9]: 2305.33
MAO-A assay signal (luminescence) [9]: 2310 and 2236 and 2370
MAO-A assay signal (luminescence), Average [10]: 4337.33
MAO-A assay signal (luminescence) [10]: 4338 and 4394 and 4280
MAO-A assay signal (luminescence), Average [11]: 8033.33
MAO-A assay signal (luminescence) [11]: 7953 and 7801 and 8346
MAO-A assay signal (luminescence), Average [12]: 14867.3
MAO-A assay signal (luminescence) [12]: 14760 and 14941 and 14901
Transformed (reciprocal of MAO-A assay signal), Average (UroC 60 µM, [1/S] 0.003125): 6.726e-5
Transformed (reciprocal of MAO-A assay signal) (UroC 60 µM, [1/S] 0.003125): 6.775e-5 and 6.693e-5 and 6.711e-5
Transformed (reciprocal of MAO-A assay signal), Average (UroC 60 µM, [1/S] 0.00625): 0.0001245
Transformed (reciprocal of MAO-A assay signal) (UroC 60 µM, [1/S] 0.00625): 0.0001257 and 0.0001282 and 0.0001198
Transformed (reciprocal of MAO-A assay signal), Average (UroC 60 µM, [1/S] 0.0125): 0.0002306
Transformed (reciprocal of MAO-A assay signal) (UroC 60 µM, [1/S] 0.0125): 0.0002305 and 0.0002276 and 0.0002336
Transformed (reciprocal of MAO-A assay signal), Average (UroC 60 µM, [1/S] 0.025): 0.0004338
Transformed (reciprocal of MAO-A assay signal) (UroC 60 µM, [1/S] 0.025): 0.0004329 and 0.0004472 and 0.0004219
Transformed (reciprocal of MAO-A assay signal), Average (UroC 60 µM, [1/S] 0.05): 0.000819
Transformed (reciprocal of MAO-A assay signal) (UroC 60 µM, [1/S] 0.05): 0.0008347 and 0.0008244 and 0.0007987
Transformed (reciprocal of MAO-A assay signal), Average (UroC 60 µM, [1/S] 0.1): 0.001374
Transformed (reciprocal of MAO-A assay signal) (UroC 60 µM, [1/S] 0.1): 0.001416 and 0.001261 and 0.00146
Michaelis-Menten best-fit Vmax of MAO-A, Average (in presence of UroC 15 uM): 50085
Michaelis-Menten best-fit Vmax of MAO-A (in presence of UroC 15 uM): 47688 and 52039 and 50528
Michaelis-Menten best-fit Vmax of MAO-A, Average (in presence of UroC 60 uM): 82346
Michaelis-Menten best-fit Vmax of MAO-A (in presence of UroC 60 uM): 96239 and 71263 and 79536
Ki (x-axis intercept of slopes of Lineweaver–Burk plots vs inhibitor concentration): 44.3 µM
SMILES: O=c1oc2cc(O)ccc2c2cc(O)c(O)cc12 [UC, urolithin-C]
